Results on 1 molecule are retold here after paper PMC12746157, “Light-Regulated Agonists Spatiotemporally Activating the Vitamin D Receptor Mitigate Psoriasis-like Inflammation in Mice without Inducing Hypercalcemia” (ACS Central Science, 2025).

The target in series [1] is T1, VDR (Homo sapiens, UniProt P11473). Briefly: Luminescent proximity homogeneous assay (AlphaScreen): interaction of purified VDR, RxR and TRAP220 coactivator fragment. The series is classed as biochemical. As to the method: The activity of all molecules was evaluated using a luminescent proximity homogeneous assay to study interactions between purified VDR, RxR and a fragment of the transcriptional coactivator TRAP220 (Supporting Information). This method allowed us to monitor the interaction between TRAP220 and the activated VDR-RxR heterodimer, which is of mechanistic and physiological significance. Both the activation of VDR and the VDR-RxR heterodimer formation are necessary to promote the whole complex association. This system efficiently includes conformational events of the receptor upon activation that go beyond a simple binding measurement. […]
The activity of all molecules was evaluated using an in-vitro luminescent proximity homogeneous assay by using the Alphascreen technology (Cat No. 6760619R, Perkin Elmer, now Revvity). In a transparent 96-well preplate, 10X concentrations of the compounds were prepared in assay buffer (0.1% bovine serum albumin, 2 mM 1,4-dithiothreitol, 25 mM HEPES and 100 mM NaCl; pH 7.3). LSN2148936 was used as positive control. Purified histidine-tagged VDR (44 µM), flag-RxRa (5.7 µM), biotin tagged TRAP220 transcriptional coactivator (500 µM), and the donor and acceptor beads from the AlphaScreen kit (2 µL/mL each), were diluted in assay buffer. In the dark, 6 µL/well of each test compound were pipetted on a white, shallow 96-well ProxiPlateTM […]
(§1) (Perkin Elmer, now Revvity, Cat.No. 6006290) in duplicate. Immediately, 54 µL of the protein solution were added and the plate was covered and incubated for 30 min at room temperature in the dark. Meanwhile, the plate with the 10X dilutions was illuminated at 365 nm for 3 min in a 96-well DED array plate (LEDA Teleopto), to allow the photoconversion of the molecules to their cis configuration. The illuminated compounds were mixed with the protein solution and incubated as described above for the plate in the dark. After the incubation time, the counts of both, the dark and illuminated plates, were measured in a Tecan Spark 20M Multimode plate reader with defined settings (excitation: 680 nm, emission: 520-620 nm, excitation time: 100ms, integration time: 300 ms). Biotinylated-His6 peptide (PerkinElmer) was used as a quality control reagent for AlphaScreen® assays and to evaluate compound interaction with the method. The raw data were normalized to the effect of the buffer (0%) and the maximum response obtained with LSN2148936 (100%). Dose-response curves and EC50 values were calculated with Graphpad software. Each experiment was performed in triplicate, with 2 replicates per plate.
4. Hydrogen/deuterium exchange coupled to mass spectrometry (HDX-MS)
The HDX-MS experiments were performed with an in-house automated modular system interfaced with an Orbitrap Exploris 480 mass spectrometer.1 Two inter-day experiments were conducted: one in the dark (first day) and one illuminated with 365 nm light (second day). Sample preparation and on-exchange reactions were performed on opaque plates (VWR® Real-Time […]
mm, Part Nº BC5226) light source was positioned above the Tecan system used for sample preparation. The distance between the UV light and the opaque plates was 80 cm. The 365 nm light illuminated the sample preparation process and the on-exchange reaction on the second day.
A 10 µM VDR-LBD protein stock solution was prepared in 20 mM HEPES buffer (with 150 mM NaCl, 10 mM D-L Methionine and 5 mM DTT) at pH 7.5. The compound 11b was prepared at 10 mM in DMSO. The protein: compound-complex (1:10 molar ratio) was pre-incubated for 1h before the first on-exchange reaction. The HDX reaction was initiated by a 5-fold dilution of the protein stock solution, in the presence and absence of compound 11b, in the corresponding Deuterated buffer at room temperature. Samples were prepared in parallel with three replicates of […]
time point, HDX reactions were quenched with a solution of 3 M Urea and 1% TFA (pH 2.5) followed by online proteolysis with an in-house Pepsin immobilized column and desalting […]
(In general: Alpha assays give light when donor and acceptor beads are brought close together.)

The next series addresses T2, VDR-LBD (Homo sapiens, UniProt P11473).
T2 construct: VDR-LBD protein stock solution was prepared in 20 mM HEPES buffer
T2 sequence (P11473 127-423 limits assumed): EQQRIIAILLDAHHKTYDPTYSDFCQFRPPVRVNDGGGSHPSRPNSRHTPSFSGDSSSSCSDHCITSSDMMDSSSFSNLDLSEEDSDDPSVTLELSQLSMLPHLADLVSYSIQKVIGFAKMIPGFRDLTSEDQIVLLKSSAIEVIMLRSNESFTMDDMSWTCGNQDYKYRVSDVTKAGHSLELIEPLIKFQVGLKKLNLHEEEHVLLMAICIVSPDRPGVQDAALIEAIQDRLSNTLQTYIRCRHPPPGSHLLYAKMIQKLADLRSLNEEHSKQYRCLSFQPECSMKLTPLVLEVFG
In words: HDX-MS of VDR-LBD with ligand in the dark and under 365 nm light. Format: binding. The settings on record: dark vs 365 nm illumination. As to the method: Although previously used to study the effect of a cyclic azopeptide in its activated cis state, here we studied the target dynamics upon direct application of the light to the sample. To this aim, HDX-MS was applied for the characterization of the binding mode and modulation of receptor dynamics of the racemic compound PhotoVDRM. VDR-LBD was incubated alone (to provide an apo control for each experiment) or with an excess of compound PhotoVDRM and exposed to deuterium labeling for various periods of time, from 10 s to 2 h, in the dark and illuminated with light at 365 nm. […] As an additional control experiment, we also evaluated the HDX-MS of VDR-LBD in the presence and absence of a standard agonist, compound LSN2148936, in the dark and under illumination conditions. […] In order to permit direct comparison, including mathematical manipulation of the data in all these experiments, the observed deuterium incorporation percentages were converted to rate constants (expressed as −log10(k)) using our previously published Bayesian approach.
as §1, with “The raw data were normalized to the effect of the buffer (0%) and the maximum response obtained with LSN2148936 (100%).” left out, “Each experiment was performed in triplicate, with 2 replicates per plate.” left out

Series [2] deals with IL-23-induced psoriatic-like inflammation. Briefly: IL-23-induced mouse model of psoriasis (ear thickness). Format: in vivo, C57BL/6N mice. The settings on record: 420 or 520 nm light regime; i.p. LSN2148936 0.005 mg/kg.
Experimental: Each mice was administered interlueukin 23 (IL-23) once a day for a total of 3 days by intradermal injection (i.d.) into one of the mouse ears. Contralateral ear i.d. injected with PBS was used as control. Subsequently, ear thickness was measured daily, by using a digital caliper, as indicative of psoriasis-course progression (Figure A).
(A) Temporal scheme for IL-23-induced mouse model of psoriasis. Animals were treated with IL-23 (i.d.) in the left ear during three consecutive days (days 1, 2 and 3). In addition, a contralateral control was performed consisting of PBS administration in the right ear. At day 2, 3, and 4 animals were previously intraperitoneally (i.p.) administered with vehicle (saline) and drugs (i.e., LSN2148936; 0.005 mg/kg and PhotoVDRM; 0.5 mg/kg). Both ears were irradiated with 420 or 520 nm light at day 2, 3, and 4 during 8 min. […] (C) Inflammatory ear response measurements. Mice ear thickness determination in animals administrated (ip) on days 2, 3, and 4 with vehicle, LSN2148936 or PhotoVDRM treated with 420 or 520 nm light. Each day, ear thickness was measured in millimeters and represented as percentage of ear thickness increase using the first measurement of PBS-administrated ear as control. Data is shown as mean ± SD, n = 5 mice per group. Statistical analysis between PhotoVDRM and vehicle. *P < 0.05 and **P < 0.01 Student’s t test.
A short description of series [3]: Serum total calcium measurement in mice (Arsenazo III). Format: in vivo. The settings on record: after treatment i.p. days 2-4 (LSN2148936 0.005 mg/kg, PhotoVDRM 0.5 mg/kg), 420 or 520 nm.
Series [4] deals with T1, VDR. Briefly: Luminescent proximity homogeneous assay (AlphaScreen): interaction of purified VDR, RxR and TRAP220 coactivator fragment. Format: biochemical. The settings on record: UVB narrowband light (315 nm) and visible illumination at 420 nm.
The target in series [5] is T1, VDR. To be noted: vs other steroid receptors such as the glucocorticoid; no reference given; cited from earlier work.

T1 sequence (P11473 whole entry, the tested form may be a part): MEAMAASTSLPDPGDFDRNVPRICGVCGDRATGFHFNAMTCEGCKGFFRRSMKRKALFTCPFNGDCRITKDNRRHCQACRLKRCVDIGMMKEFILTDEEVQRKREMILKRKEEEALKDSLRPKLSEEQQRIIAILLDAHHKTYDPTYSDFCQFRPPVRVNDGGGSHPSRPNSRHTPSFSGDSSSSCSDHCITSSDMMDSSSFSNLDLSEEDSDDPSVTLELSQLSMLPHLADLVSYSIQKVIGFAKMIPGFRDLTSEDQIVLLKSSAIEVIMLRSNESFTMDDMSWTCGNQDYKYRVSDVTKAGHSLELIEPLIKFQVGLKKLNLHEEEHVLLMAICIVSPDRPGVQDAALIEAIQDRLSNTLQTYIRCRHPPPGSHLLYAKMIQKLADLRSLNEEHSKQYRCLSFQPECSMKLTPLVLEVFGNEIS
T1 sequence (P19793 whole entry partner, the tested form may be a part): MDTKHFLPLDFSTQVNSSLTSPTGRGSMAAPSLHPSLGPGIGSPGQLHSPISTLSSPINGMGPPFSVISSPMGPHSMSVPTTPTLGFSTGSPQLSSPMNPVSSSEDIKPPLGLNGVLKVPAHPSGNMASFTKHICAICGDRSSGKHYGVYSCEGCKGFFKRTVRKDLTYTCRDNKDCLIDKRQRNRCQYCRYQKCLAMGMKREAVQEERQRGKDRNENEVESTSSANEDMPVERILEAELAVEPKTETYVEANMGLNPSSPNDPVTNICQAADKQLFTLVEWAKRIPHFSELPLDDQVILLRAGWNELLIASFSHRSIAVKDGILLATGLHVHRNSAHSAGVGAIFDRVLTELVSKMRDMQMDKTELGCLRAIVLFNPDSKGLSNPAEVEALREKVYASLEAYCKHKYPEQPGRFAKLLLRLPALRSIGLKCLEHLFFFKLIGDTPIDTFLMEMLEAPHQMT
T1 sequence (Q15648 whole entry partner, the tested form may be a part): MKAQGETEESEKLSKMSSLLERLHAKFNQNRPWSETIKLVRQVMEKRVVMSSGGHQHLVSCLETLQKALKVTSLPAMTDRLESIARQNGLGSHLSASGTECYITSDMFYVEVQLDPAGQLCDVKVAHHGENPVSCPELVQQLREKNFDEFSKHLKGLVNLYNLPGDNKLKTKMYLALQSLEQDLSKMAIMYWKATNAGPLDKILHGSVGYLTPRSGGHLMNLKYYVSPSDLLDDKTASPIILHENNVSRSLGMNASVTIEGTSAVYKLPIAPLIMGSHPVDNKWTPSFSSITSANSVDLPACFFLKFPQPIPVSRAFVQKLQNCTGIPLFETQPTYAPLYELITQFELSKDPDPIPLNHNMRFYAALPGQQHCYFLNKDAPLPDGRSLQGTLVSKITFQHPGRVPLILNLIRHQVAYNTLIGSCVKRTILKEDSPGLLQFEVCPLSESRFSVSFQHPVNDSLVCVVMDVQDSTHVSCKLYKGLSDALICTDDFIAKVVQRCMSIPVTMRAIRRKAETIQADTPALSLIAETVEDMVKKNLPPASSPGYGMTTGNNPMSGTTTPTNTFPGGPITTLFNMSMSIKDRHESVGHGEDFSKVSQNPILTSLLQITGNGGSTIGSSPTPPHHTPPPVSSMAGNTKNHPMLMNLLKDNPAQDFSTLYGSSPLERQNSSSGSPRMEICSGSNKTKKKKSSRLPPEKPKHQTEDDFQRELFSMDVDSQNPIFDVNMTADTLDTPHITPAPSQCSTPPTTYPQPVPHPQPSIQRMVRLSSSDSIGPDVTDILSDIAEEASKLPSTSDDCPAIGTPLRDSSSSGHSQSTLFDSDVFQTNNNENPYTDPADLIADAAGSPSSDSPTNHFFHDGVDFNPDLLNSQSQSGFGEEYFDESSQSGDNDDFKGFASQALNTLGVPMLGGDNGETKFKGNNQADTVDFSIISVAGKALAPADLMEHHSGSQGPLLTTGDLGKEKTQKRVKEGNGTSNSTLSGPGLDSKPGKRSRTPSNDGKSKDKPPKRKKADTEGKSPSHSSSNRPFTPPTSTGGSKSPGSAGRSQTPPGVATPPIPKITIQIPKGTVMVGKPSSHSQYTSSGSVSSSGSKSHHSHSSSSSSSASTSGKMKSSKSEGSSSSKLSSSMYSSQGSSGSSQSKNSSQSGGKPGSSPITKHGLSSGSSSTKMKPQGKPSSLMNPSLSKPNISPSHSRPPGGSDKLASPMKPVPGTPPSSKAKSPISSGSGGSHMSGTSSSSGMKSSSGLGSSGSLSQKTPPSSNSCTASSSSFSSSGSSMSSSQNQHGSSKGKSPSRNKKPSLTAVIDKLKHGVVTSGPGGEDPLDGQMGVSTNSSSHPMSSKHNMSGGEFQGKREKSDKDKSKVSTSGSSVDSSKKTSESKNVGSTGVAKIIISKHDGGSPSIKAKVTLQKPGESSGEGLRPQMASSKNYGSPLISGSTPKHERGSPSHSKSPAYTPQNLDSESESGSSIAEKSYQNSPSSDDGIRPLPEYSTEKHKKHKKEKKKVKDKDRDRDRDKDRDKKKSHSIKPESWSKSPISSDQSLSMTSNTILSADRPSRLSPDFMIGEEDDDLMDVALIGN

Broadly, the Emax is the size of the effect at its maximum, as opposed to the concentration needed. In turn, `CCC(CC)(c1ccc(CCC(O)C(C)(C)C)c(C)c1)c1ccc(C(=O)N(C)CC(=O)O)c(C)c1` (stereo not shown) [LSN2148936, reference compound] came in with an Emax on VDR [1] (after illumination (365 nm) for 3 min, normalized to maximum response of LSN2148936 (100%), mean ± SEM) of 107 ± 0.08%. Besides, on VDR [1] (dark vs 365 nm), the “effect of application of light on activity (control)” value is reported as “not affected”. Moreover, the “light-dependent changes of HDX behavior” value on VDR-LBD was “no significant light-dependent changes”. Besides, the “IL-23-induced ear inflammation (ear thickness)” value in series [2] was “prevented IL-23-associated inflammatory response”. Besides, the “effect on calcium homeostasis (serum total calcium)” value in series [3] is reported as “significant effects”. In addition, on VDR [4], the “modulation of activity by light” value was “not”. Further, at VDR [5], the “selectivity for VDR” value is on record as “highly selective”.
